Measurements published in ChEMBL document CHEMBL5518248, “Design, Synthesis, and Biological Evaluation of Novel Arylomycins against Multidrug-Resistant Gram-Negative Bacteria” (J Med Chem, 2024).

Key:
Assay type in all cases: functional
Conditions in all cases: time 18-20 hrs
Escherichia coli [1] = assay: Antibacterial activity against Escherichia coli 14-2 assessed as inhibition of bacterial growth measured after 18 to 20 hrs by broth microdilution method
Klebsiella pneumoniae [2] = assay: Antibacterial activity against Klebsiella pneumoniae 15-1 assessed as inhibition of bacterial growth measured after 18 to 20 hrs by broth microdilution method
Pseudomonas aeruginosa [3] = assay: Antibacterial activity against Pseudomonas aeruginosa 19-5 assessed as inhibition of bacterial growth measured after 18 to 20 hrs by broth microdilution method
Escherichia coli [4] = assay: Antibacterial activity against Escherichia coli ATCC 35218 assessed as inhibition of bacterial growth measured after 18 to 20 hrs by broth microdilution method
Klebsiella pneumoniae [5] = assay: Antibacterial activity against Klebsiella pneumoniae 15-5 assessed as inhibition of bacterial growth measured after 18 to 20 hrs by broth microdilution method
Pseudomonas aeruginosa [6] = assay: Antibacterial activity against Pseudomonas aeruginosa 17-1 assessed as inhibition of bacterial growth measured after 18 to 20 hrs by broth microdilution method
Acinetobacter baumannii [7] = assay: Antibacterial activity against Acinetobacter baumannii 17-8 assessed as inhibition of bacterial growth measured after 18 to 20 hrs by broth microdilution method
Escherichia coli [8] = assay: Antibacterial activity against Escherichia coli 14-4 assessed as inhibition of bacterial growth measured after 18 to 20 hrs by broth microdilution method
Klebsiella pneumoniae [9] = assay: Antibacterial activity against Klebsiella pneumoniae 15-4 assessed as inhibition of bacterial growth measured after 18 to 20 hrs by broth microdilution method
Acinetobacter baumannii [10] = assay: Antibacterial activity against Acinetobacter baumannii 17-2 assessed as inhibition of bacterial growth measured after 18 to 20 hrs by broth microdilution method

Compound | MIC (Escherichia coli [1]) | MIC (Klebsiella pneumoniae [2]) | MIC (Pseudomonas aeruginosa [3]) | MIC (Escherichia coli [4]) | MIC (Klebsiella pneumoniae [5]) | MIC (Pseudomonas aeruginosa [6]) | MIC (Acinetobacter baumannii [7]) | MIC (Escherichia coli [8]) | MIC (Klebsiella pneumoniae [9]) | MIC (Acinetobacter baumannii [10])
Cc1nc(-c2ccc(C(C)(C)C)cc2)ncc1C(=O)N[C@@H](CCN)C(=O)N(C)[C@@H]1C(=O)N[C@@H](C)C(=O)N[C@H](NC(=O)NC#N)Cc2ccc(OCCN)c(c2)-c2cc1ccc2OCCN.O=C(O)C(F)(F)F.O=C(O)C(F)(F)F.O=C(O)C(F)(F)F.O=C(O)C(F)(F)F | 64 µg/mL | 64 µg/mL | > 64 µg/mL | 32 µg/mL | 64 µg/mL | > 64 µg/mL | > 64 µg/mL | 64 µg/mL | 64 µg/mL | > 64 µg/mL
CCCCCSSc1ccc(-c2ncc(C(=O)N[C@@H](CCN)C(=O)N(C)[C@@H]3C(=O)N[C@@H](C)C(=O)N[C@H](C(=O)NCC#N)Cc4ccc(OCCN)c(c4)-c4cc3ccc4OCCN)c(C)n2)cc1.O=C(O)C(F)(F)F.O=C(O)C(F)(F)F.O=C(O)C(F)(F)F.O=C(O)C(F)(F)F | 0.25 µg/mL | 1 µg/mL | 4 µg/mL | 0.5 µg/mL | 0.5 µg/mL | 4 µg/mL | 1 µg/mL | 0.25 µg/mL | 0.5 µg/mL | 2 µg/mL
Cc1nc(-c2ccc(C(C)(C)SSC(C)(C)C)cc2)ncc1C(=O)N[C@@H](CCN)C(=O)N(C)[C@@H]1C(=O)N[C@@H](C)C(=O)N[C@H](C(=O)NCC#N)Cc2ccc(OCCN)c(c2)-c2cc1ccc2OCCN.O=C(O)C(F)(F)F.O=C(O)C(F)(F)F.O=C(O)C(F)(F)F.O=C(O)C(F)(F)F | ≤ 0.03 µg/mL | 0.125 µg/mL | 4 µg/mL | ≤ 0.03 µg/mL | 0.25 µg/mL | 4 µg/mL | 0.5 µg/mL | ≤ 0.03 µg/mL | 0.25 µg/mL | 1 µg/mL
CCSSc1ccc(-c2ncc(C(=O)N[C@@H](CCN)C(=O)N(C)[C@@H]3C(=O)N[C@@H](C)C(=O)N[C@H](C(=O)NCC#N)Cc4ccc(OCCN)c(c4)-c4cc3ccc4OCCN)c(C)n2)cc1.O=C(O)C(F)(F)F.O=C(O)C(F)(F)F.O=C(O)C(F)(F)F.O=C(O)C(F)(F)F | 0.125 µg/mL | 0.06 µg/mL | 8 µg/mL | ≤ 0.03 µg/mL | 0.125 µg/mL | 8 µg/mL | 1 µg/mL | 0.06 µg/mL | 0.125 µg/mL | 2 µg/mL
CSSC(C)(C)c1ccc(-c2ncc(C(=O)N[C@@H](CCN)C(=O)N(C)[C@@H]3C(=O)N[C@@H](C)C(=O)N[C@H](C(=O)O)Cc4ccc(OCCN)c(c4)-c4cc3ccc4OCCN)c(C)n2)cc1.O=C(O)C(F)(F)F.O=C(O)C(F)(F)F.O=C(O)C(F)(F)F.O=C(O)C(F)(F)F | ≤ 0.03 µg/mL | ≤ 0.03 µg/mL | > 64 µg/mL | ≤ 0.03 µg/mL | ≤ 0.03 µg/mL | > 64 µg/mL | 2 µg/mL | 0.06 µg/mL | 0.25 µg/mL | 4 µg/mL
Cc1nc(-c2ccc(C(C)(C)C)cc2)ncc1C(=O)N[C@@H](CCN)C(=O)N(C)[C@@H]1C(=O)N[C@@H](C)C(=O)N[C@H](C(=O)CC#N)Cc2ccc(OCCN)c(c2)-c2cc1ccc2OCCN.O=C(O)C(F)(F)F.O=C(O)C(F)(F)F.O=C(O)C(F)(F)F.O=C(O)C(F)(F)F | 8 µg/mL | 16 µg/mL | > 64 µg/mL | 4 µg/mL | 16 µg/mL | > 64 µg/mL | 16 µg/mL | 8 µg/mL | 16 µg/mL | 16 µg/mL
CSC(=O)CNC(=O)[C@@H]1Cc2ccc(OCCN)c(c2)-c2cc(ccc2OCCN)[C@H](N(C)C(=O)[C@H](CCN)NC(=O)c2cnc(-c3ccc(C(C)(C)C)cc3)nc2C)C(=O)N[C@@H](C)C(=O)N1.O=C(O)C(F)(F)F.O=C(O)C(F)(F)F.O=C(O)C(F)(F)F.O=C(O)C(F)(F)F | 4 µg/mL | 0.25 µg/mL | 64 µg/mL | 0.5 µg/mL | 0.5 µg/mL | 64 µg/mL | 16 µg/mL | 1 µg/mL | 1 µg/mL | 64 µg/mL
Cc1nc(-c2ccc(C(C)(C)C)cc2)ncc1C(=O)N[C@@H](CCN)C(=O)N(C)[C@@H]1C(=O)N[C@@H](C)C(=O)N[C@H](C(=O)NCC=O)Cc2ccc(OCCN)c(c2)-c2cc1ccc2OCCN.Cl.Cl.Cl.Cl | ≤ 0.03 µg/mL | ≤ 0.03 µg/mL | 64 µg/mL | ≤ 0.03 µg/mL | ≤ 0.03 µg/mL | > 64 µg/mL | 2 µg/mL | 0.06 µg/mL | 0.125 µg/mL | 4 µg/mL
Cc1nc(C2CCC3(CC2)CC3)ncc1C(=O)N[C@@H](CCN)C(=O)N(C)[C@@H]1C(=O)N[C@@H](C)C(=O)N[C@H](C(=O)NCC#N)Cc2ccc(OCCN)c(c2)-c2cc1ccc2OCCN.O=C(O)C(F)(F)F.O=C(O)C(F)(F)F.O=C(O)C(F)(F)F.O=C(O)C(F)(F)F | 2 µg/mL | 2 µg/mL | > 64 µg/mL | 1 µg/mL | 2 µg/mL | > 64 µg/mL | 8 µg/mL | 1 µg/mL | 4 µg/mL | 64 µg/mL
CSSc1ccc(-c2ncc(C(=O)N[C@@H](CCN)C(=O)N(C)[C@@H]3C(=O)N[C@@H](C)C(=O)N[C@H](C(=O)NCC#N)Cc4ccc(OCCN)c(c4)-c4cc3ccc4OCCN)c(C)n2)cc1.O=C(O)C(F)(F)F.O=C(O)C(F)(F)F.O=C(O)C(F)(F)F.O=C(O)C(F)(F)F | 0.5 µg/mL | 0.5 µg/mL | 16 µg/mL | 0.25 µg/mL | 1 µg/mL | 16 µg/mL | 2 µg/mL | 0.5 µg/mL | 1 µg/mL | 4 µg/mL
C[C@@H]1NC(=O)[C@@H](N(C)C(=O)[C@H](CCN)NC(=O)c2cnc(-c3ccc(CSSC(C)(C)C)cc3)cc2Cl)c2ccc(OCCN)c(c2)-c2cc(ccc2OCCN)C[C@@H](C(=O)NCC#N)NC1=O.O=C(O)C(F)(F)F.O=C(O)C(F)(F)F.O=C(O)C(F)(F)F.O=C(O)C(F)(F)F | 0.25 µg/mL | 0.25 µg/mL | 8 µg/mL | ≤ 0.03 µg/mL | 0.125 µg/mL | 8 µg/mL | 1 µg/mL | 0.125 µg/mL | 0.5 µg/mL | 1 µg/mL
Cc1nc(-c2ccc([C@H](C)SSC(C)(C)C)cc2)ncc1C(=O)N[C@@H](CCN)C(=O)N(C)[C@@H]1C(=O)N[C@@H](C)C(=O)N[C@H](C(=O)NCC#N)Cc2ccc(OCCN)c(c2)-c2cc1ccc2OCCN.O=C(O)C(F)(F)F.O=C(O)C(F)(F)F.O=C(O)C(F)(F)F.O=C(O)C(F)(F)F | ≤ 0.03 µg/mL | 0.125 µg/mL | 1 µg/mL | ≤ 0.03 µg/mL | 0.125 µg/mL | 4 µg/mL | 0.25 µg/mL | ≤ 0.03 µg/mL | 0.125 µg/mL | 0.25 µg/mL
CCCCCCCSSCc1ccc(-c2ncc(C(=O)N[C@@H](CCN)C(=O)N(C)[C@@H]3C(=O)N[C@@H](C)C(=O)N[C@H](C(=O)NCC#N)Cc4ccc(OCCN)c(c4)-c4cc3ccc4OCCN)c(C)n2)cc1.O=C(O)C(F)(F)F.O=C(O)C(F)(F)F.O=C(O)C(F)(F)F.O=C(O)C(F)(F)F | 1 µg/mL | 2 µg/mL | 4 µg/mL | 2 µg/mL | 2 µg/mL | 4 µg/mL | 2 µg/mL | 1 µg/mL | 2 µg/mL | 2 µg/mL
CCSSCc1ccc(-c2ncc(C(=O)N[C@@H](CCN)C(=O)N(C)[C@@H]3C(=O)N[C@@H](C)C(=O)N[C@H](C(=O)NCC#N)Cc4ccc(OCCN)c(c4)-c4cc3ccc4OCCN)c(C)n2)cc1.O=C(O)C(F)(F)F.O=C(O)C(F)(F)F.O=C(O)C(F)(F)F.O=C(O)C(F)(F)F | 0.06 µg/mL | 0.06 µg/mL | 16 µg/mL | ≤ 0.03 µg/mL | 0.125 µg/mL | 8 µg/mL | 0.5 µg/mL | ≤ 0.03 µg/mL | 0.125 µg/mL | 1 µg/mL
Cc1nc(-c2ccc(CSSC(C)C)cc2)ncc1C(=O)N[C@@H](CCN)C(=O)N(C)[C@@H]1C(=O)N[C@@H](C)C(=O)N[C@H](C(=O)NCC#N)Cc2ccc(OCCN)c(c2)-c2cc1ccc2OCCN.O=C(O)C(F)(F)F.O=C(O)C(F)(F)F.O=C(O)C(F)(F)F.O=C(O)C(F)(F)F | 0.06 µg/mL | 0.06 µg/mL | 4 µg/mL | ≤ 0.03 µg/mL | 0.06 µg/mL | 2 µg/mL | 0.125 µg/mL | 0.06 µg/mL | 0.125 µg/mL | 0.5 µg/mL
Cc1nc(-c2ccc(CSSC(C)(C)C)cc2)ccc1C(=O)N[C@@H](CCN)C(=O)N(C)[C@@H]1C(=O)N[C@@H](C)C(=O)N[C@H](C(=O)NCC#N)Cc2ccc(OCCN)c(c2)-c2cc1ccc2OCCN.O=C(O)C(F)(F)F.O=C(O)C(F)(F)F.O=C(O)C(F)(F)F.O=C(O)C(F)(F)F | 0.25 µg/mL | 0.125 µg/mL | 8 µg/mL | ≤ 0.03 µg/mL | 0.06 µg/mL | 8 µg/mL | 1 µg/mL | 0.125 µg/mL | 0.125 µg/mL | 1 µg/mL
Cc1nc(-c2ccc(C(C)(C)C)cc2)ncc1C(=O)N[C@@H](CCN)C(=O)N(C)[C@@H]1C(=O)N[C@@H](C)C(=O)N[C@H](NC(=O)NCC#N)Cc2ccc(OCCN)c(c2)-c2cc1ccc2OCCN.O=C(O)C(F)(F)F.O=C(O)C(F)(F)F.O=C(O)C(F)(F)F.O=C(O)C(F)(F)F | 64 µg/mL | > 64 µg/mL | > 64 µg/mL | 32 µg/mL | > 64 µg/mL | > 64 µg/mL | > 64 µg/mL | 64 µg/mL | > 64 µg/mL | > 64 µg/mL
